# US6060481A, “Method for improving insulin sensitivity using an adenosine receptor antagonist” (priority 1999, dated 2000)
# Columns and labels:
# [1] = biological target: T1, human A3 adenosine receptor (Homo sapiens, UniProt P0DMS8); assay: Binding constants against cloned and expressed human adenosine receptor subtypes (A3); conditions: read-out: Binding constant (KD) A3
# T1 construct: expressed in transfected cells
# T1 sequence (P0DMS8 1-318): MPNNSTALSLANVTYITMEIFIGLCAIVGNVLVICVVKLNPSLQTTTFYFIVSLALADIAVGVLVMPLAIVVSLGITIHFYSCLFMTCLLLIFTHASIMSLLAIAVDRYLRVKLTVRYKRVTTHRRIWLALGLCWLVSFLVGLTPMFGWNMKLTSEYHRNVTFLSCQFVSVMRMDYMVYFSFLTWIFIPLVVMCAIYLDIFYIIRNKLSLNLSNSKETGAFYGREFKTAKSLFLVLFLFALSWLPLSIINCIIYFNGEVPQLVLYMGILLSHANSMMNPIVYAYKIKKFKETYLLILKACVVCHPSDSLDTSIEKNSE
# [2] = test system: glucose uptake by individual tissues; assay: In vivo tissue glucose uptake with 14C 2-deoxyglucose during clamp; design: species or system Zucker rats; conditions: for Decrease in glucose uptake by adipose tissue: epididymal fat, normalized to wet weight
# Procedure: In vivo glucose uptake by individual tissues was determined using [^14 C]-labeled 2-deoxyglucose (2-DG), as described previously in, for example, the Lang references cited above. Tissue-specific glucose uptake was determined between 140 and 180 min after the start of the euglycemic hyperinsulinemic clamp. A tracer amount of 2-DG (8 μCi/rat; Amersham, Arlington Heights, Ill.) was injected intravenously, and tissues obtained 40 min later. Prior to tissue collection, serial arterial blood samples (0.2 ml) were withdrawn into heparinized syringes, plasma deproteinized with perchloric acid and ^14 C-radioactivity determined. Thereafter, animals were anesthetized with sodium pentobarbital, exsanguinated, and selected tissues were excised to determine the intracellular accumulation of phosphorylated 2-DG.
# During the hyperinsulinemic clamp, blood glucose concentrations were determined at 10-min intervals using the YSI glucose analyzer (Yellow Springs, Ohio). Glucose specific activity was determined on neutralized supernatants of deproteinized plasma as taught by Lang, Am. J. Physiol, 263 (Endocrinol. Metab. 26): E703-D711 (1992). Tissue samples (600-900 mg wet wt) were immersed in ice-cold 0.5 N PCA, homogenized, and centrifuged. The concentration of phosphorylated 2-DG in tissues was calculated as the difference between total ^14 C-radioactivity of the neutral extract and the ^14 C-radioactivity remaining after Somogyi treatment as described in detail by Lang CH, Dobrescu C, and Meszaros K., Metabolism 39:1096-1107 (1990).
# Rates of whole body glucose appearance (Ra) and disappearance (Rd) are calculated using the steady-state equations of Steele, Ann. NY Acad. Sci., 82:420-430 (1959). The glucose metabolic clearance rate (MCR) is calculated by dividing the glucose Rd by the prevailing glucose concentration. Since the prevailing insulin levels during the hyperinsulinemic clamp completely suppress endogenous glucose production, the rate of whole body glucose disposal equals the exogenous glucose infusion rate. The increment in insulin-stimulated glucose uptake (IMGU) for each animals is calculated by subtracting the basal endogenous glucose Ra from the measured rate of glucose disposal determined during the last 40 min of the clamp. In vivo glucose uptake for each tissue examined is calculated based on the accumulation of phosphorylated 2-DG by a respective tissue, the integrated 2-DG:glucose ratio in the plasma during the 40-min labeling period, and the lumped constant as described by Lang, Endocrinology, 128:645-653 (1991).
# [3] = biological target: T2, human A1 adenosine receptor (Homo sapiens, UniProt P30542); assay: Binding constants against cloned and expressed human adenosine receptor subtypes (A1); conditions: read-out: Binding constant (KD) A1
# T2 construct: expressed in transfected cells
# T2 sequence (P30542 1-326): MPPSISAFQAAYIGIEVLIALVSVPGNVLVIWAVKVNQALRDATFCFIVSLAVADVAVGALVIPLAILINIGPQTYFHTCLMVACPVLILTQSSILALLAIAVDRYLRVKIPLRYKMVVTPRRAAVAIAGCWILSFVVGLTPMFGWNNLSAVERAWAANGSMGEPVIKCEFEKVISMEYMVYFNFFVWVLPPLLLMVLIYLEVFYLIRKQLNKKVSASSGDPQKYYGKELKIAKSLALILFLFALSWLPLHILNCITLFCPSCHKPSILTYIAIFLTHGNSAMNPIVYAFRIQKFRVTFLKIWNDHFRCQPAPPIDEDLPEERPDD
# [4] = biological target: T3, human A2B adenosine receptor (Homo sapiens, UniProt P29275); assay: Binding constants against cloned and expressed human adenosine receptor subtypes (A2B); conditions: read-out: Binding constant (KD) A2B
# T3 construct: expressed in transfected cells
# T3 sequence (P29275 1-332): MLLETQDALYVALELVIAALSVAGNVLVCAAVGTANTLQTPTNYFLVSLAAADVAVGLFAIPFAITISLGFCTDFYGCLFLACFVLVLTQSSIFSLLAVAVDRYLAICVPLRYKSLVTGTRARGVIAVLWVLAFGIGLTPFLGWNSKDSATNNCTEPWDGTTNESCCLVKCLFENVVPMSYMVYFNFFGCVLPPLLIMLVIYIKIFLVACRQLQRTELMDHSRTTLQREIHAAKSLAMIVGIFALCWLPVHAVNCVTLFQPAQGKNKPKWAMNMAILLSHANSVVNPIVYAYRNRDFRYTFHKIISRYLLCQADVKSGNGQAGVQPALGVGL
# Description: Any A2B adenosine receptor antagonist can be used according to the present methods. Methods for determining whether a compound is an A2B adenosine receptor agonist or antagonist involve quantitating its binding affinity to membranes which are known to contain the A2B subtype. The methods for determining whether compounds are specific ligands of different adenosine receptor subtypes will be known by practitioners of the art. […] References cited therein provide more complete descriptions of the procedures used.
# In these previous methods, a radioactive compound (DPCPX) known to be highly specific for A1 adenosine receptors and whose KD is published was incubated with isolated fat cell membranes. A1 adenosine receptors are abundant in fat cells and DPCPX's binding to fat cell membranes occurs due to those receptors. […] Human cells which express large amounts of human A2B adenosine receptors are not readily available. Therefore, in order to determine the KD of BWA1433 for the A2B adenosine receptor the cDNA of human A2B adenosine receptor was used to overexpress the A2B adenosine receptor in a mammalian cell line.
# [5] = Basal postabsorptive glucose kinetics; assay type: in vivo, Zucker rats; conditions: for Glucose Concentration / Glucose MCR / Glucose Ra: basal postabsorptive, treated 1 wk
# Procedure: In this example, 6-8 week old lean and obese female animals were used. Each group received either vehicle or vehicle plus 1,3-dipropyl-8-(p-acrylic)phenylxanthine (BWA1433) (12 mg/kg every 12 h) for one week prior to the start of the experimental protocol, as described by Xu, et al., Am. […] The vehicle in this case was 10 mg/ml methyl cellulose in H2 O. The final dose of BWA1433 or vehicle was administered approximately 1 h prior to the start of the experimental protocol.
# On the day prior to the start of the experimental protocol, animals were anesthetized with an intramuscular injection of ketamine and xylazine (90 and 9 mg/kg body weight, respectively), and sterile surgery was performed to implant catheters in the carotid artery and jugular vein according to the methods taught by Lang et al., Endocrinology, 130: 43-52 (1992). After surgery, animals were housed in individual cages and provided water ad libitum. Animals were fasted overnight.
# The following morning, a primed, constant intravenous infusion of [3-^3 H]glucose (high-performance liquid chromatography purified; DuPont-New England Nuclear, Boston, Mass.) was initiated to determine basal glucose kinetics. A 7-μCi bolus injection of labeled glucose was administered followed by a continuous infusion at a rate of 0.083 μCi/min for the next 2 h. Arterial blood samples were collected at 100 and 120 min (0.3 ml each) after the start of the tracer infusion. Blood was collected in heparinized syringes, centrifuged, and the plasma glucose concentration and glucose specific activity were determined on each sample.
# Rates of whole body glucose appearance (Ra) and disappearance (Rd) are calculated using the steady-state equations of Steele, Ann. […] The glucose metabolic clearance rate (MCR) is calculated by dividing the glucose Rd by the prevailing glucose concentration.
# [6] = obese rats, one week treatment, clamp
smiles,measurement,setting,value
"CCCn1c(=O)c2[nH]c(-c3ccc(C=CC(=O)O)cc3)nc2n(CCC)c1=O [BWA1433, 1,3-dipropyl-8-(p-acrylic)phenylxanthine]",Kd,[1],30 nM
same,Glucose uptake under hyperinsulinemic conditions in heart,[2]; lean animals,unaffected
same,Glucose uptake under hyperinsulinemic conditions in liver,[2]; lean animals,unaffected
same,Decrease in glucose uptake by gastrocnemius,[2]; lean rats,16%
same,Decrease in glucose uptake by soleus,[2]; lean rats,12%
same,Decrease in glucose uptake by adipose tissue,[2]; lean rats,48%
same,Change in glucose uptake in heart,[2]; obese rats,no significant change
same,Change in glucose uptake in liver,[2]; obese rats,no significant change
same,Decrease in glucose uptake by adipose tissue,[2]; obese rats,54%
same,Increase in glucose uptake in gastrocnemius compared to vehicle-treated obese rats,[2]; [6],44%
same,Increase in glucose uptake in soleus compared to vehicle-treated obese rats,[2]; [6],47%
same,Reduction in glucose uptake by fat,"[2]; on the basis of intracellular aqueous volume, both groups (lean, obese)",approximately 50%
same,Kd,[3],140 nM
same,Kd,[4],60 nM
same,Alterations in any parameter of glucose metabolism,"[5]; basal conditions, either group (lean, obese)",did not produce detectable alterations
same,Glucose Concentration,[5]; lean rats,5.1 ± 0.2 mM
same,Glucose MCR,[5]; lean rats,7.1 ± 0.8 ml · min^-1 .multidot
same,Glucose Ra,[5]; lean rats,36.8 ± 2.9 μmol^-1 · min .multid
same,Glucose Concentration,[5]; obese rats,4.5 ± 0.2 mM
same,Glucose MCR,[5]; obese rats,8.3 ± 0.8 ml · min^-1 .multidot
same,Glucose Ra,[5]; obese rats,37.5 ± 4.8 μmol^-1 · min .multid
